Laboratory results: patent US20260007688A1, “SYNTHETIC ANALOGS OF CANNABINOL (CBN) FOR THE TREATMENT OF AGERELATED NEUROLOGICAL DISORDERS” (priority 2023, published 2026)
pEC50: −log10 of the molar value.

Tests used:
HT22 cells [1] = assay: Microscopic imaging of cell morphology after RSL3; assay type: cell-based, mouse; conditions: 5 μM compound + 50 nM RSL3, 16 hours
Excerpt: Micrographs show the representative morphological characteristics of the cell cultures under a given condition of 8 experimental replicates. Scale bar=200 μm.
Microscopy. Brightfield, phase contrast, and fluorescence microscopic images were acquired on an IX51 inverted microscope (Olympus Corporation, Tokyo, Japan) with an INFINITY3 monochrome CCD camera (Teledyne Lumenera, Ontario, Canada). Super-resolution microscopic images were acquired on a Zeiss LSM 880 rear port laser scanning confocal and Airyscan FAST microscope (Carl-Zeiss, Oberkochen, Germany). Image processing and analysis were performed with microscope software packages ZEN Black and ImageJ/Fiji.

Drosophila melanogaster = assay: Drosophila mild traumatic brain injury (mTBI) model; assay type: in vivo; conditions: 3.0 μM in food, 3 weeks after mTBI (10×); vehicle 70.2%
HT22 cells [2] = assay: Mitochondrial reactive oxygen species measurement (MitoSOX Red); assay type: cell-based, mouse; conditions: 5 μM compound + 50 nM RSL3
Method: The assay procedure described in Liang et al. was used. Briefly, HT22 cells were seeded onto 96-well black walled plates at a density of 3,000 cells/well in DMEM supplemented with 10% FBS and 1% antibiotics. After the desired treatments, the mitochondrial superoxide ROS were detected with MitoSOX Red reagent (Ex/Em=510/580 nm). Experiments were performed according to the manufacturer's instructions. Fluorescence was measured on a SpectraMax M5 microplate reader. Data were normalized for total protein/well. Each condition was analyzed in eight wells per independent experiment (n=8). Results are presented as the percentage of the controls with vehicle alone. Results were verified by live-cell imaging under a fluorescence microscope. FIG. 14 provides the results.

HT22 cells [3] = assay: Ferroptosis assay, erastin-induced cell death, MTT viability; assay type: cell-based; conditions: Mus musculus, HT-22, 500 nM erastin, 16 hours
Method: (§1) HT22 mouse hippocampal nerve cells were cultured in high-glucose Dulbecco's modified Eagle's medium (DMEM) (Invitrogen, Cat #11995065, Carlsbad, CA) supplemented with 10% fetal bovine serum (FBS) (Invitrogen, Carlsbad, CA) and 1% antibiotics including penicillin and streptomycin (Invitrogen Cat #10378016, Carlsbad, CA). Cell cultures were incubated at 37° C. in a fully humidified atmosphere containing 10% CO2.
(§2) The assay procedure described in Fischer et al. was used. Briefly, HT22 cells were seeded at 3,000 cells/well in 96-well tissue culture plates in DMEM plus 10% FBS and 1% antibiotics. After 24 hours of plating, the cells were pretreated with different concentrations of test compounds or a vehicle control for 1 hour followed by coincubation with 50-100 nM RSL3 or 500 nM erastin to induce the cell death cascade. After 16 hours of treatment, cell viability was measured by the MTT assay. Optical absorbance was measured at 570 nm on a SpectraMax M5 microplate reader. Samples were analyzed in eight to sixteen wells per independent experiment (n=8-16). Results are presented as the percentage of the controls with vehicle alone.

HT22 cells [4] = assay: Ferroptosis assay, RSL3-induced cell death, MTT viability; assay type: cell-based; conditions: Mus musculus, HT-22, 50 nM RSL3, 16 hours
Method: as §1, §2

HT22 cells [5] = assay: Oxytosis assay, glutamate-induced cell death, MTT viability; assay type: cell-based; conditions: Mus musculus, HT-22, 5 mM glutamate, 16 hours
Method: as §1
The assay procedure described in Fischer et al., “Old age-associated phenotypic screening for Alzheimer's disease drug candidates identifies sterubin as a potent neuroprotective compound from Yerba santa” Redox Biol. 21 (2019) 101089 was used. Briefly, HT22 cells were seeded at 3,000 cells/well in 96-well tissue culture plates in DMEM plus 10% FBS and 1% antibiotics. After 24 hours of plating, the cells were pretreated with different concentrations of the test compounds or a vehicle control for 1 hour followed by coincubation with 5 mM glutamate to initiate the cell death cascade. After 16 hours of treatment, cell viability was measured by the 3-(4,5-dimethylthiazol-2-yl)-2,5-diphenyltetrazolium bromide (MTT) assay. Optical absorbance was measured at 570 nm on a SpectraMax M5 microplate reader. Samples were analyzed in eight to sixteen wells per independent experiment (n=8-16). Results are presented as the percentage of the controls with vehicle alone.

HT22 cells [6] = assay: Lipid peroxidation measurement (C11-BODIPY); assay type: cell-based, mouse; conditions: compound + RSL3, 16 hours, p<0.0001
Method: The assay procedures were adapted from the procedures disclosed by Soriano-Castell et al., “Profiling the chemical nature of anti-oxytotic/ferroptotic compounds with phenotypic screening” Free Radic. Biol. Med. 177 (2021) 313-325 and Liang et al. “Cannabinol inhibits oxytosis/ferroptosis by directly targeting mitochondria independently of cannabinoid receptors” Free Radic. Biol. Med. 180 (2022) 33-51. Briefly, HT22 cells were seeded onto 96-well black walled plates at a density of 3,000 cells/well in DMEM supplemented with 10% FBS and 1% antibiotics. After the desired treatments for 16 hours, cells were labeled with 2.5 μM C11-BODIPY 581/591 (oxidized form Ex/Em=488/520 nm) at 37° C. for 2 hours. Experiments were performed according to the manufacturer's instructions. Fluorescence was measured on a SpectraMax M5 microplate reader. Data were normalized for total protein/well. Each condition was analyzed in eight wells per independent experiment (n=8). Results were verified by live-cell imaging under a fluorescence microscope.

HT22 cells [7] = assay: Seahorse XF mitochondrial stress test (OCR); assay type: cell-based, mouse; conditions: 16 hours, compared with the control cells
HT22 cells [8] = assay: Seahorse XF real-time ATP rate assay; assay type: cell-based, mouse; conditions: 5 μM, 16 hours
Method: The assay procedure described in Liang et al., “Cannabinol inhibits oxytosis/ferroptosis by directly targeting mitochondria independently of cannabinoid receptors” Free Radic. Biol. Med. 180 (2022) 33-51 was used. Briefly, ATP production rates were assayed with a XF Real-Time ATP Rate Assay Kit using a Seahorse Xfe96 Extracellular Flux Analyzer (Seahorse Bioscience, North Billerica, MA). Complete Seahorse XF DMEM assay medium was supplemented with 10 mM glucose, 1 mM pyruvate and 2 mM L-glutamine, at pH 7.4. Mitochondrial ETC inhibitors were used at the following concentrations: 1.5 μM oligomycin and 0.5 μM of a 1:1 mixture of rotenone and antimycin A. Analyses were conducted using Wave software and XF Report Generators (Agilent Technologies). The sensor cartridge for the Xfe analyzer was hydrated overnight at 37° C. before the experiment. Data were normalized for total protein/well. Each condition was analyzed in 20-40 wells per independent experiment (n=20-40). FIGS. 12 and 13 provide the results.
For HT22 cells, 2,000 cells/well were seeded onto the Seahorse Xfe96 plates under normal culture condition as described above. The next day, cells were treated with test compounds at the desired concentrations and incubated for 16 hours. Immediately before the assay, the culture medium in the plates was replaced with complete Seahorse XF DMEM assay medium. […]

MC65 cells = assay: Intracellular amyloid toxicity assay; assay type: cell-based; conditions: Homo sapiens, 72 h, APP-C99 induced, day 3, MTT, read-out: Aβ toxicity EC50
Excerpt: Accumulation of intracellular amyloid beta peptide (Aβ) is considered by many as being a primary toxic event in AD. The human nerve cell line MC65 conditionally expresses the C99 fragment of the amyloid precursor protein (APP) leading to the accumulation of intracellular AB. The MC65 cells are routinely grown in the presence of tetracycline and, following its removal, the expression of C99 is induced and the cells die within three days because of the accumulation of intracellular, toxic protein aggregates.
For the intracellular amyloid toxicity assay the procedure described in Huang et al., “Intracellular amyloid toxicity induces oxytosis/ferroptosis regulated cell death” Cell Death Dis. 11 (10) (2020) 828 was used. Briefly, MC65 cells were regularly grown in high glucose DMEM supplemented with 10% FCS and 2 μg/ml tetracycline. For the assay, cells were dissociated and plated at 1×10^5 cells per well in 24 well tissue culture plates. After overnight cultivation in growth medium, the cells were washed three times with phosphate buffered saline containing calcium and magnesium and then switched to Opti-minimal essential media (Opti-MEM, Invitrogen) in the presence (no induction) or absence (APP-C99 induced) of 2 μg/ml tetracycline in the presence or absence different concentrations of the indicated compounds. At day 3, the control cells in the absence of tetracycline were dead, and cell viability was determined by the MTT assay. Optical absorbance was measured at 570 nm on a SpectraMax M5 microplate reader. Samples were analyzed in three wells per independent experiment (n=3). Results are presented as EC50.

CCCCCc1cc(O)c2c(c1)OC(C)(C)c1ccc(C)cc1-2 [CBN, Cannabinol] was tested, and the “prevention of RSL3-induced morphological deteriorations” value (HT22 cells [1]) was “effectively prevented”, the “3-week mortality index (MI), percentage of dead flies” value (Drosophila melanogaster) was 60.5% and the “RSL3-induced mtROS production” value (HT22 cells [2]) was “significantly suppressed”. For the same compound, the pEC50 (HT22 cells [3]) was 5.63, the pEC50 (HT22 cells [4]) was 6.16 and the pEC50 (HT22 cells [5]) was 5.72. The “RSL3-induced increase in intracellular LPO” value (HT22 cells [6]) was “significantly suppressed”, the “maximal and spare mitochondrial respiration (OCR)” value (HT22 cells [7]) was “partial but significant decrease” and the “total ATP production rate” value (HT22 cells [8]; compared to the control) was “slightly but significantly decreased”. For the same compound, the “increase in the OXPHOS contribution to ATP production” value (HT22 cells [8]; relative to the control) was “approximately 15%” and the pEC50 (MC65 cells) was 7.85.
